Tested on: soybean
Assay: Farmland test on soybean (germination, height, fresh weight, dry weight)
Format: in vivo
Settings: relative to the negative control (pure water)
Method: BR1, BR2, BR3, BR4, BR5 and BR6 were mixed into a mixture of brassinolide analogues (referred to as “BRs”, in which the weight ratio of BR1:BR2:BR3:BR4:BR5:BR6 is 0.4:0.4:0.4:0.4:0.4:98). pure water was used as a negative control, while chemically synthesized homobrassinolide (purchased from Yunda Technology Co., Ltd.) was used as a positive control. Respectively BRs and the positive control were diluted to the concentrations of 1 ppm, 0.5 ppm, 0.1 ppm, 0.05 ppm, 0.01 ppm, 0.005 ppm, 0.001 ppm, 0.0005 ppm and 0.0001 ppm. The subjects for the experimentation are soybean seeds in an experimental farmland. We sowed the soybean seeds on 9th July, surveyed the germination on 22nd July, 23rd July and 24th July, and measured the height on 5th September […].

## CC[C@@H](C(C)C)[C@H](O)[C@@H](O)[C@@H](C)[C@H]1CC[C@H]2[C@@H]3COC(=O)[C@H]4C[C@H](O)[C@H](O)C[C@]4(C)[C@H]3CC[C@]12C [homobrassinolide]
  Effects on germination, height, fresh weight and dry weight of soybean: positive and different effects
